Tests used:
[1] = biological target: T1, Human Calpain 1/NS1 (Homo sapiens, UniProt P07384); assay: Calpain inhibition continuous fluorescence (FRET) assay, Human Calpain 1/NS1; assay type: biochemical; settings: read-out: Human Calpain 1/NS1 IC50
T1 sequence (P07384 1-714): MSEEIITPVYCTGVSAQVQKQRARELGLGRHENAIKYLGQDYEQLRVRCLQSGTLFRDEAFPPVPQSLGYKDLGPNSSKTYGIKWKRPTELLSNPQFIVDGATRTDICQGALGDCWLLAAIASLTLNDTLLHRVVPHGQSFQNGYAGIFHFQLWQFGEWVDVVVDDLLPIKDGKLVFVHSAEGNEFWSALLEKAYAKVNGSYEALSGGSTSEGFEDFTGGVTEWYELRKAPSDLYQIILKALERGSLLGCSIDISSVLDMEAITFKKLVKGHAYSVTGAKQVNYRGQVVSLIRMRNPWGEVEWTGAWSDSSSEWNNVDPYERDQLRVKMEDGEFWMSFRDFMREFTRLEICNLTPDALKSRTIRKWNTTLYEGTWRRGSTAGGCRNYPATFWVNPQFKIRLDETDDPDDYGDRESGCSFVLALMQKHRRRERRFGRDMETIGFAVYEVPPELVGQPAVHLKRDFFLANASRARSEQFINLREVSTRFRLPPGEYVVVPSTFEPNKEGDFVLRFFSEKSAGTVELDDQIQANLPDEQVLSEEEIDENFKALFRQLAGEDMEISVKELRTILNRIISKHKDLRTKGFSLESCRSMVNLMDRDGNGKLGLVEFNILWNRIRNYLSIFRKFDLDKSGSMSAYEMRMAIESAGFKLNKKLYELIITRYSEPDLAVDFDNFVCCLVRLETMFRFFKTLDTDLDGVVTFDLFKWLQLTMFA
T1 sequence (P04632 1-268 partner): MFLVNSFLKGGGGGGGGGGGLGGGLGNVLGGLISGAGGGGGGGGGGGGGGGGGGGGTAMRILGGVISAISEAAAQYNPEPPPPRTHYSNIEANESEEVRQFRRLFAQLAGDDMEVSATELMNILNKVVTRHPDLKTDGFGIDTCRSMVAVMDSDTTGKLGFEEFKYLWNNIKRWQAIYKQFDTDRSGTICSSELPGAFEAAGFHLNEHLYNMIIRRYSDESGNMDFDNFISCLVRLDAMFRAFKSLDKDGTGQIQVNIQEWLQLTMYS
Procedure, shortened: (§1)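 Buffer 50 mM Tris pH 7.5/100 mM NaCl/1 mM DTT; enzyme + cpd preinc 25C; start w/ FRET substrate + CaCl2; kinetic 490/520 nm, 10 min; slopes 1-5 min; 4-PL IC50.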

[2] = biological target: T2, Human Calpain 2/NS1 (Homo sapiens, UniProt P17655); assay: Calpain inhibition continuous fluorescence (FRET) assay, Human Calpain 2/NS1; assay type: biochemical; settings: read-out: Human Calpain 2/NS1 IC50
T2 sequence (P17655 1-700): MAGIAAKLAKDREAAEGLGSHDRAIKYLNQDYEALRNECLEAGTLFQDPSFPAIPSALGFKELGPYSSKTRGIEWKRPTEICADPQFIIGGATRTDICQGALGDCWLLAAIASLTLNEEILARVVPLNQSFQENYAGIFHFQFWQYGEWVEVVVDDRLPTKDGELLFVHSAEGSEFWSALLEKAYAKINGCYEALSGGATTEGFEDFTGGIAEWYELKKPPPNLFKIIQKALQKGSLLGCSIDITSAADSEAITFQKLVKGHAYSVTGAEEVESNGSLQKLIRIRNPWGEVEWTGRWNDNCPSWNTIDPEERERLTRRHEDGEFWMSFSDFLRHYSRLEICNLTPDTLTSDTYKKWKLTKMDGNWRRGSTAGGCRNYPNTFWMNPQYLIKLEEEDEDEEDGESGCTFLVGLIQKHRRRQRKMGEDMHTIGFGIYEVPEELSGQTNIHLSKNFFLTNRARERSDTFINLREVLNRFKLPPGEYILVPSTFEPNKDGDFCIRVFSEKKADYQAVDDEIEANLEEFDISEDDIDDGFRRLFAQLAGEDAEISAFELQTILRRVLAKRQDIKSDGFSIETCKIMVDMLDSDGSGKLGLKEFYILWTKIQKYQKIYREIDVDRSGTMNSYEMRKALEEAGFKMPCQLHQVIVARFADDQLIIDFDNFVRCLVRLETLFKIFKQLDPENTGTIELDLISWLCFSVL
T2 sequence (P04632 1-268 partner): T1 sequence (P04632 1-268 partner)
Procedure, shortened: as §1

[3] = biological target: T3, Human Calpain 9/NS1 (Homo sapiens, UniProt O14815); assay: Calpain inhibition continuous fluorescence (FRET) assay, Human Calpain 9/NS1; assay type: biochemical; settings: read-out: Human Calpain 9/NS1 IC50
T3 sequence (O14815 1-690): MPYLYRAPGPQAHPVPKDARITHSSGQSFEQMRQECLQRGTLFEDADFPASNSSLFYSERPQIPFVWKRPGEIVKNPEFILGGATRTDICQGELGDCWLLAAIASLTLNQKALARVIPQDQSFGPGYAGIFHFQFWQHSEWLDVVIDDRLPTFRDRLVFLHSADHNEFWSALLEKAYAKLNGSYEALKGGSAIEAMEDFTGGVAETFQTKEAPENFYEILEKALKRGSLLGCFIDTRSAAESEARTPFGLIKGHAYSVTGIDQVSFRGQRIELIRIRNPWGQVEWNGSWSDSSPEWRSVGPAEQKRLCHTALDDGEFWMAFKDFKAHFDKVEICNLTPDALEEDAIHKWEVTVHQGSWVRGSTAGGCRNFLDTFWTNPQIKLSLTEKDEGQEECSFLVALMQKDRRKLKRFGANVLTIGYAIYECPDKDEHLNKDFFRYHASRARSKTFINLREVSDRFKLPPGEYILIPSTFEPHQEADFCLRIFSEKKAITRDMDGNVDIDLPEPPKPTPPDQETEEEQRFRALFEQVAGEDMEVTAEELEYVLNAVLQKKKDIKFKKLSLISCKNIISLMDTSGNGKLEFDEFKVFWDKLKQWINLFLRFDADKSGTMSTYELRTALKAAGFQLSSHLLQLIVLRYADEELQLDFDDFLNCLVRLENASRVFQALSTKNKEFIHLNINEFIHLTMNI
T3 sequence (P04632 1-268 partner): T1 sequence (P04632 1-268 partner)
Procedure, shortened: as §1

[4] = tested on: Calpain activity in SH-SY5Y cells (SBDP-150); assay: SH-SY5Y Spectrin western blot assay (SBDP-150 breakdown product, A23187-induced); assay type: cell-based; settings: Homo sapiens; SH-SY5Y cells, A23187-induced SBDP-150, western blot; read-out: SH-SY5Y Spectrin IC50
[5] = tested on: Calpain activity in SH-SY5Y cells; assay: SH-SY5Y + AMC fluorescence assay (Suc-LLVY-AMC substrate); assay type: cell-based; settings: read-out: SH-SY5Y + AMC IC50

IC50 [1] [µM]	IC50 [2] [µM]	IC50 [3] [µM]	IC50 [4] [µM]	IC50 [5] [µM]	Structure (SMILES)
< 3	< 3	< 3	< 10	> 25	NC(=O)C(=O)C(Cc1ccccc1)NC(=O)c1nsnc1-c1ccc2c(c1)C(=O)N(Cc1ccccc1)C2 (centres unmarked) [Compound 378, N-(4-amino-3,4-dioxo-1-phenylbutan-2-yl)-4-(2-benzyl-3-oxoisoindolin-5-yl)-1,2,5-thiadiazole-3-carboxamide]
< 3	< 3	< 3	< 10	< 10	NC(=O)C(=O)[C@@H](Cc1ccccc1)NC(=O)c1cn(C(F)F)nc1-c1ccccc1 [Compound 380, (R)—N-(4-amino-3,4-dioxo-1-phenylbutan-2-yl)-1-(difluoromethyl)-3-phenyl-1H-pyrazole-4-carboxamide]
< 3	< 3	< 3	< 10	< 10	NC(=O)C(=O)C(Cc1ccccc1)NC(=O)c1cn(C(F)F)nc1-c1cccc(F)c1 (centres unmarked) [Compound 381, N-(4-amino-3,4-dioxo-1-phenylbutan-2-yl)-1-(difluoromethyl)-3-(3-fluorophenyl)-1H-pyrazole-4-carboxamide]
< 3	< 3	< 3	10 to 25	< 10	Cc1ccccc1-c1nn(C(F)F)cc1C(=O)NC(Cc1ccccc1)C(=O)C(N)=O (centres unmarked) [Compound 382, N-(4-amino-3,4-dioxo-1-phenylbutan-2-yl)-1-(difluoromethyl)-3-(o-tolyl)-1H-pyrazole-4-carboxamide]
< 3	< 3	< 3	< 10	< 10	NC(=O)C(=O)C(Cc1ccccc1)NC(=O)c1cn(C(F)F)nc1-c1ccccc1F (centres unmarked) [Compound 383, N-(4-amino-3,4-dioxo-1-phenylbutan-2-yl)-1-(difluoromethyl)-3-(2-fluorophenyl)-1H-pyrazole-4-carboxamide]
< 3	< 3	< 3	< 10	< 10	COc1cccc(-c2nn(C(F)F)cc2C(=O)NC(Cc2ccccc2)C(=O)C(N)=O)c1 (centres unmarked) [Compound 384, N-(4-amino-3,4-dioxo-1-phenylbutan-2-yl)-1-(difluoromethyl)-3-(3-methoxyphenyl)-1H-pyrazole-4-carboxamide]
< 3	< 3	< 3	< 10	> 25	COc1ccc(C[C@H](NC(=O)c2oc(C)nc2-c2ccccc2)C(=O)C(N)=O)cc1 [Compound 385, (S)—N-(4-amino-1-(4-methoxyphenyl)-3,4-dioxobutan-2-yl)-2-methyl-4-phenyloxazole-5-carboxamide]
< 3	< 3	< 3	> 25	10 to 25	Cc1nc(-c2ccccc2)c(C(=O)N[C@@H](CCc2ccccc2)C(=O)C(N)=O)o1 [Compound 386, (S)—N-(1-amino-1,2-dioxo-5-phenylpentan-3-yl)-2-methyl-4-phenyloxazole-5-carboxamide]
< 3	< 3	< 3	> 25	> 25	CC[C@@H](C)[C@H](NC(=O)c1oc(C)nc1-c1ccccc1)C(=O)C(N)=O [Compound 387, N-((3S,4R)-1-amino-4-methyl-1,2-dioxohexan-3-yl)-2-methyl-4-phenyloxazole-5-carboxamide]
< 3	< 3	< 3	< 10	10 to 25	Cc1cc(C)cc(C[C@H](NC(=O)c2oc(C)nc2-c2ccccc2)C(=O)C(N)=O)c1 [Compound 388, (S)—N-(4-amino-1-(3,5-dimethylphenyl)-3,4-dioxobutan-2-yl)-2-methyl-4-phenyloxazole-5-carboxamide]
< 3	< 3	< 3	< 10	< 10	Cc1nc(-c2ccccc2)c(C(=O)N[C@@H](Cc2c[nH]c3ccccc23)C(=O)C(N)=O)o1 [Compound 389, (S)—N-(4-amino-1-(1H-indol-3-yl)-3,4-dioxobutan-2-yl)-2-methyl-4-phenyloxazole-5-carboxamide]
> 10	> 10	> 10	10 to 25	< 10	COc1cc(C(=O)NC(Cc2ccccc2)C(=O)C(N)=O)n(-c2ccccc2)n1 (centres unmarked) [Compound 392, N-(4-amino-3,4-dioxo-1-phenylbutan-2-yl)-3-methoxy-1-phenyl-1H-pyrazole-5-carboxamide]
< 3	< 3	< 3	10 to 25	< 10	NC(=O)C(=O)C(Cc1ccccc1)NC(=O)c1oc(C2CC2)nc1-c1ccccc1 (centres unmarked) [Compound 393, N-(4-amino-3,4-dioxo-1-phenylbutan-2-yl)-2-cyclopropyl-4-phenyloxazole-5-carboxamide]
< 3	< 3	< 3	> 25	> 25	NC(=O)C(=O)C(Cc1ccccc1)NC(=O)c1nc(C2CC2)oc1-c1ccccc1 (centres unmarked) [Compound 394, N-(4-amino-3,4-dioxo-1-phenylbutan-2-yl)-2-cyclopropyl-5-phenyloxazole-4-carboxamide]
< 3	< 3	< 3	< 10	10 to 25	O=CC(Cc1ccccc1)NC(=O)c1cn(C(F)F)nc1-c1ccccc1 (centres unmarked) [Compound 396, 1-(difluoromethyl)-N-(1-oxo-3-phenylpropan-2-yl)-3-phenyl-1H-pyrazole-4-carboxamide]
< 3	< 3	< 3	< 10	> 25	O=CC(Cc1ccccc1)NC(=O)c1cnoc1-c1ccccc1 (centres unmarked) [Compound 397, N-(1-oxo-3-phenylpropan-2-yl)-5-phenylisoxazole-4-carboxamide]
